Reference: ChEMBL document CHEMBL4725405, “Synthesis and evaluation of 17α-triazolyl and 9α-cyano derivatives of estradiol” (Bioorg Med Chem, 2020)

Legend:
[1] = target: T1, Estrogen receptor beta (Homo sapiens, UniProt Q92731)
[2] = target: T2, Estrogen receptor (Homo sapiens, UniProt P03372)
T2 sequence (P03372 whole entry): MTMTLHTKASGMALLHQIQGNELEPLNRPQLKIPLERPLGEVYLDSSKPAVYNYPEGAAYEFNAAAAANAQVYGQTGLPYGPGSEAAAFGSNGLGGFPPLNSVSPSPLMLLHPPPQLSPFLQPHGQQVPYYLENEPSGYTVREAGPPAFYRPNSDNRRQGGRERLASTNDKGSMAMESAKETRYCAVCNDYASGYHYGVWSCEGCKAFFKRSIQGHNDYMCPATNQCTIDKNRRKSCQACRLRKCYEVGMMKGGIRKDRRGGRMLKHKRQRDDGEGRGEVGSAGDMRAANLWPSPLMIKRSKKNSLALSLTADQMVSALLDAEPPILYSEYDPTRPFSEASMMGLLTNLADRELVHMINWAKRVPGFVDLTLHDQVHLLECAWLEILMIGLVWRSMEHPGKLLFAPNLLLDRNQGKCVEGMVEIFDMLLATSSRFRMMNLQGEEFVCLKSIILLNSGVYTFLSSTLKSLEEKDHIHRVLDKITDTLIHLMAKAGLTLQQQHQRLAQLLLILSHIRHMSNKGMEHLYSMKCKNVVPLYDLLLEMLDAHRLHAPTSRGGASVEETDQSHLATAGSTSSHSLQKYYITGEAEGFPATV

[3] = target: T2, Estrogen receptor; remark: listed apart in the source
Description: Antagonist activity at full length human ERalpha receptor assessed as inhibition of estradiol-induced activation incubated for 22 to 24 hrs by cell based luciferase reporter gene assay

[4] = target: T1, Estrogen receptor beta; remark: listed apart in the source
Description: Antagonist activity at full length human ERbeta receptor assessed as inhibition of estradiol-induced activation incubated for 22 to 24 hrs by cell based luciferase reporter gene assay

[5] = target: T1, Estrogen receptor beta; remark: listed apart in the source
Description: Agonist activity at full length human ERbeta receptor assessed as transcriptional activity incubated for 22 to 24 hrs by cell based luciferase reporter gene assay

[6] = target: T1, Estrogen receptor beta; experiment: Displacement of fluormone from GST-tagged ERbeta receptor LBD (unknown origin) measured after 60 mins by TR-FRET competitive binding assay relative to control; settings: filed as agonist
[7] = target: T3, Estrogen receptor (Homo sapiens) (UniProt P03372); experiment: Agonist activity at full length human ERalpha receptor assessed as transcriptional activity incubated for 22 to 24 hrs by cell based luciferase reporter gene assay relative to control; settings: filed as agonist
T3 sequence (whole entry): T2 sequence (P03372 whole entry)

T1 sequence (Q92731 whole entry): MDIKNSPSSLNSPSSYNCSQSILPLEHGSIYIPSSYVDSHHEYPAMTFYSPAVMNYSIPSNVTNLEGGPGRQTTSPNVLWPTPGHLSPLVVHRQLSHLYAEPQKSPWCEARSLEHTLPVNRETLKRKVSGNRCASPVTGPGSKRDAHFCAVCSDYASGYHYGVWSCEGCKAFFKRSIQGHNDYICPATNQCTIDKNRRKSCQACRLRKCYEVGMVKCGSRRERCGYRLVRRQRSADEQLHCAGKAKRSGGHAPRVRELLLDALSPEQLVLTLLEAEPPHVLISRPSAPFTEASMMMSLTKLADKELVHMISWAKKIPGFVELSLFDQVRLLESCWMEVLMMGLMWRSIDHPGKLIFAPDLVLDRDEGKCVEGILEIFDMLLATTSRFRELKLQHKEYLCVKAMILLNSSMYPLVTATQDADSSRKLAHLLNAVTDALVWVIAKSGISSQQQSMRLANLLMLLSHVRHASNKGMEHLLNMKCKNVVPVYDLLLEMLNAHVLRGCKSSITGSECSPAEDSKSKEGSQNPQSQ

SMILES | EC50 [1] [nM] | EC50 [2] [nM] | EC50 [3] [nM] | EC50 [4] [nM] | EC50 [5] [nM] | Activity [6] [%] | Activity [7] [%]
C[C@]12CC[C@@H]3c4ccc(O)cc4CC[C@H]3[C@@H]1CC[C@@]2(O)c1cn(CCO)nn1 | 50 | 149 | > 10000 | > 10000 | 16 |  | 
C[C@]12CC[C@]3(C#N)c4ccc(O)cc4CC[C@H]3[C@@H]1CC[C@@]2(O)c1cn(CCO)nn1 | 4400 |  |  |  |  |  | 
C[C@]12CC[C@@H]3c4ccc(O)cc4CC[C@H]3[C@@H]1CC[C@@]2(O)c1cn(-c2cccc(O)c2)nn1 | 12 | 68 | > 1000 | > 10000 | 21 | 60 | 46
C#C[C@]1(O)CC[C@H]2[C@@H]3CCc4cc(O)ccc4[C@@]3(C#N)CC[C@@]21C | 51 | 22 | > 10000 | > 10000 | 14 |  | 
C[C@]12CC[C@]3(C#N)c4ccc(O)cc4CC[C@H]3[C@@H]1CCC2=O | 78 | 88 | > 10000 | > 5000 | 9 |  | 
C[C@]12CC[C@]3(C#N)c4ccc(O)cc4CC[C@H]3[C@@H]1CC[C@@H]2O | 0.27 | 0.38 | > 5000 | > 25 | 0.029 |  | 
C[C@]12CC[C@@H]3c4ccc(O)cc4CC[C@H]3[C@@H]1CC[C@@]2(O)c1cn(-c2ccccc2)nn1 |  | 5 | > 1000 |  |  |  | 
C[C@]12CC[C@@H]3c4ccc(O)cc4CC[C@H]3[C@@H]1CC[C@@]2(O)c1cn(-c2ccc(O)cc2)nn1 | 0.65 | 0.87 | > 10000 | > 10000 | 0.81 |  | 
